The record followed here is ChEMBL document CHEMBL5543142, “Discovery of YFJ-36: Design, Synthesis, and Antibacterial Activities of Catechol-Conjugated β-Lactams against Gram-Negative Bacteria” (J Med Chem, 2024).

For data set [1], the system named is Escherichia coli. The experiment in a line: Antibacterial activity against ESBL-producing multidrug-resistant Escherichia coli clinical isolate 14-1 assessed as inhibition of bacterial growth incubated for 18 to 20 hrs by two fold serial dilution assay. The class given is functional. As to conditions: time 18-20 hrs.
The test system of data set [2] is Escherichia coli. Put plainly: Antibacterial activity against ESBL-producing multidrug-resistant Escherichia coli clinical isolate 14-2 assessed as inhibition of bacterial growth incubated for 18 to 20 hrs by two fold serial dilution assay. The data set is classed as functional. As to conditions: time 18-20 hrs.
Data set [3] relates to Escherichia coli. The experiment in a line: Antibacterial activity against ESBL-producing multidrug-resistant Escherichia coli clinical isolate 14-4 assessed as inhibition of bacterial growth incubated for 18 to 20 hrs by two fold serial dilution assay. The class given is functional. As to conditions: time 18-20 hrs.
Data set [4] concerns Klebsiella pneumoniae. The experiment in a line: Antibacterial activity against KPC-2 producing multidrug-resistant Klebsiella pneumoniae clinical isolate 15-1 assessed as inhibition of bacterial growth incubated for 18 to 20 hrs by two fold serial dilution assay. The data set is classed as functional. As to conditions: time 18-20 hrs.
The test system of data set [5] is Klebsiella pneumoniae. Put plainly: Antibacterial activity against KPC-2 producing multidrug-resistant Klebsiella pneumoniae clinical isolate 15-2 assessed as inhibition of bacterial growth incubated for 18 to 20 hrs by two fold serial dilution assay. The class given is functional. As to conditions: time 18-20 hrs.
The subject of data set [6] is Klebsiella pneumoniae. Put plainly: Antibacterial activity against KPC-2 producing multidrug-resistant Klebsiella pneumoniae clinical isolate 15-5 assessed as inhibition of bacterial growth incubated for 18 to 20 hrs by two fold serial dilution assay. The data set is classed as functional. As to conditions: time 18-20 hrs.
Data set [7] has as its system Escherichia coli. Put plainly: Antibacterial activity against Escherichia coli ATCC35218 assessed as inhibition of bacterial growth incubated for 18 to 20 hrs by two fold serial dilution assay. The data set is classed as functional. As to conditions: time 18-20 hrs.
In data set [8] the test system is Pseudomonas aeruginosa. Put plainly: Antibacterial activity against IMP-4 producing multidrug-resistant Pseudomonas aeruginosa clinical isolate 17-13 assessed as inhibition of bacterial growth incubated for 18 to 20 hrs by two fold serial dilution assay. The data set is classed as functional. Conditions: time 18-20 hrs.
Data set [9] relates to Pseudomonas aeruginosa. The experiment in a line: Antibacterial activity against IMP-4 producing multidrug-resistant Pseudomonas aeruginosa clinical isolate 17-1 assessed as inhibition of bacterial growth incubated for 18 to 20 hrs by two fold serial dilution assay. Conditions: time 18-20 hrs. The data set is classed as functional.
For data set [10], the system named is Pseudomonas aeruginosa. Put plainly: Antibacterial activity against IMP-4 producing multidrug-resistant Pseudomonas aeruginosa clinical isolate 19-17 assessed as inhibition of bacterial growth incubated for 18 to 20 hrs by two fold serial dilution assay. The class given is functional. As to conditions: time 18-20 hrs.
Data set [11] has as its system Acinetobacter baumannii. Put plainly: Antibacterial activity against OXA-23 producing multidrug-resistant Acinetobacter baumannii clinical isolate 17-2 assessed as inhibition of bacterial growth incubated for 18 to 20 hrs by two fold serial dilution assay. The data set is classed as functional. As to conditions: time 18-20 hrs.
The test system of data set [12] is Acinetobacter baumannii. Put plainly: Antibacterial activity against OXA-23 producing multidrug-resistant Acinetobacter baumannii clinical isolate 17-3 assessed as inhibition of bacterial growth incubated for 18 to 20 hrs by two fold serial dilution assay. The class given is functional. Conditions: time 18-20 hrs.
Data set [13] has as its system Pseudomonas aeruginosa. The experiment in a line: Antibacterial activity against IMP-4 producing multidrug-resistant Pseudomonas aeruginosa clinical isolate 19-5 assessed as inhibition of bacterial growth incubated for 18 to 20 hrs by two fold serial dilution assay. The class given is functional. Conditions: time 18-20 hrs.
The test system of data set [14] is Pseudomonas aeruginosa. Put plainly: Antibacterial activity against IMP-4 producing multidrug-resistant Pseudomonas aeruginosa clinical isolate 19-1 assessed as inhibition of bacterial growth incubated for 18 to 20 hrs by two fold serial dilution assay. The class given is functional. As to conditions: time 18-20 hrs.
Data set [15] concerns Acinetobacter baumannii. The experiment in a line: Antibacterial activity against OXA-23 producing multidrug-resistant Acinetobacter baumannii clinical isolate 17-5 assessed as inhibition of bacterial growth incubated for 18 to 20 hrs by two fold serial dilution assay. The class given is functional. As to conditions: time 18-20 hrs.
Data set [16] deals with Acinetobacter baumannii. The experiment in a line: Antibacterial activity against OXA-23 producing multidrug-resistant Acinetobacter baumannii clinical isolate 17-6 assessed as inhibition of bacterial growth incubated for 18 to 20 hrs by two fold serial dilution assay. As to conditions: time 18-20 hrs. The data set is classed as functional.
The subject of data set [17] is Acinetobacter baumannii. Put plainly: Antibacterial activity against OXA-23 producing multidrug-resistant Acinetobacter baumannii clinical isolate 17-7 assessed as inhibition of bacterial growth incubated for 18 to 20 hrs by two fold serial dilution assay. The data set is classed as functional. Conditions: time 18-20 hrs.
In data set [18] the test system is Acinetobacter baumannii. The experiment in a line: Antibacterial activity against OXA-23 producing multidrug-resistant Acinetobacter baumannii clinical isolate 17-8 assessed as inhibition of bacterial growth incubated for 18 to 20 hrs by two fold serial dilution assay. The class given is functional. As to conditions: time 18-20 hrs.
In data set [19] the test system is Klebsiella pneumoniae. The experiment in a line: Antibacterial activity against KPC-2 producing multidrug-resistant Klebsiella pneumoniae clinical isolate 15-3 assessed as inhibition of bacterial growth incubated for 18 to 20 hrs by two fold serial dilution assay. The class given is functional. As to conditions: time 18-20 hrs.
Data set [20] has as its system Acinetobacter baumannii. The experiment in a line: Antibacterial activity against OXA-23 producing multidrug-resistant Acinetobacter baumannii clinical isolate 15-1 assessed as inhibition of bacterial growth incubated for 18 to 20 hrs by two fold serial dilution assay. The data set is classed as functional. Conditions: time 18-20 hrs.
Data set [21] relates to Acinetobacter baumannii. The experiment in a line: Antibacterial activity against OXA-23 producing multidrug-resistant Acinetobacter baumannii clinical isolate 15-2 assessed as inhibition of bacterial growth incubated for 18 to 20 hrs by two fold serial dilution assay. The data set is classed as functional. Conditions: time 18-20 hrs.
Data set [22] concerns Acinetobacter baumannii. The experiment in a line: Antibacterial activity against OXA-23 producing multidrug-resistant Acinetobacter baumannii clinical isolate 15-3 assessed as inhibition of bacterial growth incubated for 18 to 20 hrs by two fold serial dilution assay. As to conditions: time 18-20 hrs. The class given is functional.
Data set [23] relates to Acinetobacter baumannii. Put plainly: Antibacterial activity against OXA-23 producing multidrug-resistant Acinetobacter baumannii clinical isolate 15-4 assessed as inhibition of bacterial growth incubated for 18 to 20 hrs by two fold serial dilution assay. The data set is classed as functional. As to conditions: time 18-20 hrs.
Data set [24] relates to Acinetobacter baumannii. The experiment in a line: Antibacterial activity against OXA-23 producing multidrug-resistant Acinetobacter baumannii clinical isolate 15-5 assessed as inhibition of bacterial growth incubated for 18 to 20 hrs by two fold serial dilution assay. The class given is functional. As to conditions: time 18-20 hrs.
A short description of data set [25]: Plasma protein binding in mouse incubated for 35 mins by LC-MS/MS analysis. Conditions: read-out: PPB (converted). The class given is ADME, cell-free.

The structures appear in SMILES notation.

With `C[C@](O/N=C(\C(=O)N[C@@H]1C(=O)N2C(C(=O)O)=C(CSCCNC(=O)c3ccc(O)c(O)c3Cl)CS[C@H]12)c1nc(N)sc1Cl)(C(=O)O)C(F)(F)F.O=C(O)C(F)(F)F`, the MIC (as a rule, the smallest concentration in the dilution series that meets the test's criterion for growth inhibition) with Escherichia coli [1] is 0.06 µg/mL; in the data set on Escherichia coli [2], 0.5 µg/mL; with Escherichia coli [3], at most 0.03 µg/mL; with Klebsiella pneumoniae [4], 0.25 µg/mL; in the data set on Klebsiella pneumoniae [5] it was 0.5 µg/mL; in the data set on Klebsiella pneumoniae [6], 0.125 µg/mL. The MIC is 0.125 µg/mL in the data set on Escherichia coli [7]; 0.125 µg/mL with Pseudomonas aeruginosa [8]; 8 µg/mL in the data set on Pseudomonas aeruginosa [9]; 0.06 µg/mL in the data set on Pseudomonas aeruginosa [10]; 0.06 µg/mL in the data set on Acinetobacter baumannii [11]; 0.5 µg/mL with Acinetobacter baumannii [12]. Moreover, the MIC in the data set with Pseudomonas aeruginosa [13] worked out at 0.25 µg/mL; in the data set with Pseudomonas aeruginosa [14] it was 1 µg/mL; in the data set with Acinetobacter baumannii [15] it was 0.125 µg/mL; in the data set on Acinetobacter baumannii [16] it was 0.5 µg/mL; with Acinetobacter baumannii [17] it was 0.5 µg/mL; with Acinetobacter baumannii [18], 0.125 µg/mL. In addition, the MIC in the data set on Klebsiella pneumoniae [19] was found to be 0.5 µg/mL.

Take `CC(C)[C@H](O/N=C(\C(=O)N[C@@H]1C(=O)N2C(C(=O)O)=C(CSCCNC(=O)c3ccc(O)c(O)c3Cl)CS[C@H]12)c1csc(N)n1)C(=O)O.O=C(O)C(F)(F)F`: the MIC turned out to be 0.125 µg/mL in the data set with Escherichia coli [1]; 1 µg/mL in the data set on Escherichia coli [2]; 0.125 µg/mL in the data set with Escherichia coli [3]; 1 µg/mL in the data set on Klebsiella pneumoniae [4]; 1 µg/mL in the data set on Klebsiella pneumoniae [5]; 4 µg/mL with Klebsiella pneumoniae [6]. Further, the MIC with Escherichia coli [7] is 0.06 µg/mL; in the data set with Pseudomonas aeruginosa [8] it was 0.125 µg/mL; in the data set on Pseudomonas aeruginosa [9], 8 µg/mL; in the data set on Pseudomonas aeruginosa [10] it was 0.25 µg/mL; with Acinetobacter baumannii [11], 4 µg/mL; with Acinetobacter baumannii [12], 4 µg/mL. For the same molecule, the MIC with Pseudomonas aeruginosa [13] came out at 0.5 µg/mL; with Pseudomonas aeruginosa [14], 1 µg/mL; with Acinetobacter baumannii [15], 4 µg/mL; in the data set on Acinetobacter baumannii [16], 16 µg/mL; in the data set with Acinetobacter baumannii [17], 8 µg/mL; in the data set with Acinetobacter baumannii [18] it was 4 µg/mL. Also, in the data set with Klebsiella pneumoniae [19], the MIC worked out at 4 µg/mL.

With `Nc1nc(/C(=N/OC(C(=O)O)C2CCC(C(F)(F)F)CC2)C(=O)N[C@@H]2C(=O)N3C(C(=O)O)=C(CSCCNC(=O)c4ccc(O)c(O)c4Cl)CS[C@H]23)cs1.O=C(O)C(F)(F)F` (stereo not given in full), the minimal inhibitory concentration (MIC) with Escherichia coli [1] was 0.25 µg/mL; with Escherichia coli [2], 1 µg/mL; in the data set with Escherichia coli [3], 0.25 µg/mL; with Acinetobacter baumannii [20], 4 µg/mL; in the data set on Acinetobacter baumannii [21], 2 µg/mL; in the data set with Acinetobacter baumannii [22], 4 µg/mL. For the same molecule, the MIC came to 8 µg/mL in the data set on Acinetobacter baumannii [23]; 2 µg/mL in the data set with Acinetobacter baumannii [24]; 1 µg/mL with Klebsiella pneumoniae [4]; 1 µg/mL with Klebsiella pneumoniae [5]; 1 µg/mL in the data set on Klebsiella pneumoniae [6]; 0.06 µg/mL with Escherichia coli [7]. Also, the MIC in the data set on Pseudomonas aeruginosa [8] was found to be 0.125 µg/mL; with Pseudomonas aeruginosa [9] it was 1 µg/mL; in the data set with Pseudomonas aeruginosa [10] it was 0.5 µg/mL; in the data set on Klebsiella pneumoniae [19] it was 1 µg/mL. Moreover, the fraction unbound at 35 min in [25] was 0.04.
